Measured values as given in paper PMC7481357, “N-terminal Myristoylation Enhanced the Antimicrobial Activity of Antimicrobial Peptide PMAP-36PW” (Frontiers in Cellular and Infection Microbiology, 2020).
“Also recorded” adds a separate entry of the source. Residues, ends and D or L forms follow the SMILES beside them. *: point of attachment. Myristoyl = CCCCCCCCCCCCCC(=O)*

How the values were obtained:
S. typhimurium SL 1344 = type: cell-based, Salmonella typhimurium
Protocol: (§1) The MICs of Myr-36PW in vitro were measured through microdilution in accordance with the Clinical and Laboratory Standards Institute (CLSI, [2020]). The bacterial cells were cultured for 12 h at 37°C in the appropriate medium and then diluted to 1 × 10^6 CFU/mL. Equal volumes (100 μL) of bacterial cell suspension and two-fold serially diluted different concentrations peptides (0.0039–256 μg/mL) were added to each well of the sterile 96-well plate. The samples were incubated for 18 h at 37°C. After incubation, the MICs of the peptides were determined by evaluating the growth based on the OD600 of the cultures.

S. aureus ATCC 25923 [1] = experiment: Pneumonia (lung infection) model; type: in vivo, BALB/c mice; settings: intranasal 40 μL, 1 μg/μL, once a day for 3 days; for Pathological scores of the lung sections: n = 5; for Bacterial CFU in lung homogenate: reduced vs PBS group P < 0.01, n = 5
Protocol: A pneumonia model in vivo was established as previously reported, with minor modification (Cortés et al., [2002]; Aoki et al., [2009]; Shi et al., [2018]). A total of 120 mice were randomly divided into two experimental models, one was intranasal inoculation of S. aureus ATCC 25923 (8.3 × 10^9 CFU/mL, 50 μL), and the other was intranasal inoculation of P. aeruginosa GIM 1.551 (4.5 × 10^10 CFU/mL, 50 μL). In the S. aureus ATCC 25923 model, 60 mice were divided into the following six groups of 10 mice each: no infection and treatment was used as a blank control, those with intranasal administration of PBS (40 μL) as the negative control group, those administered with benzylpenicillin potassium (40 μL, 1 μg/μL) as the positive control group, and the remaining three corresponded to Myr-36PW (40 μL, 1 μg/μL), PMAP-36PW (40 μL, 1 μg/μL), and PMAP-36 groups (40 μL, 1 μg/μL). The procedure for P. aeruginosa GIM 1.551 model is the same as for S. aureus ATCC 25923 model, except for the use of ampicillin sodium as the positive control. After 4 h post-inoculation, treatment was initiated, once a day for 3 days. The mice were sacrificed 24 h after the treatment. Changes in the appearance of lung tissues were observed, and lung tissues were removed aseptically from the mice. Half of the removed lung tissues were gently fixed in buffered formaldehyde solution for histopathological assessment by hematoxylin and eosin (H&E) staining. Pathological changes were scored to provide individual therapeutic status as described previously (Lei et al., [2018]). The remaining lung tissues were added with 1 mL of PBS, homogenized, and serially diluted. Bacterial CFU counts were determined.
Figure 8 Therapeutic effect for pneumonia by Myr-36PW in vivo. Mice were injected with S. aureus ATCC 25923 or P. aeruginosa GIM 1.551 to form pneumonia, and lungs (n = 5) in each group were collected on day 4 after intranasal bacterial inoculation. (A) Morphological changes of lung tissues. (B) Representative histopathological images of processed lung section with hematoxylin and eosin (H&E) staining. Images are presented at a magnification of 20×. a: inflammatory cell infiltration. b: the alveolar wall is thickened. c: alveolar wall congestion or alveolar hemorrhage. (C,D) Pathological scores of the lung sections. Scoring standard: 1 indicated no pathology, 2 indicated local pulmonary congestion and inflammatory cell infiltration, 3 indicated pulmonary congestion and a large number of inflammatory cell infiltration, affecting <20% of the section, 4 indicated pulmonary congestion and a large number of inflammatory cell infiltration, affecting 20–50% of the section, and 5 indicated pulmonary congestion and a large number of inflammatory cell infiltration, affecting >50% of the section. (E,F) Bacterial CFU in lung homogenate. BP is benzylpenicillin potassium, AS is ampicillin sodium. Data represent the mean ± SD of five individual experiments.

S. aureus ATCC 25923 [2] = type: cell-based, Staphylococcus aureus
Protocol: as §1

S. aureus ATCC 25923 [3] = experiment: Peritonitis model; type: in vivo, BALB/c mice; settings: intraperitoneal 60 μL, 1 μg/μL, once a day for 3 days; for Liver pathogenic scores: compared with PBS group; for Liver pathogenic scores / Bacterial CFU in liver and spleen homogenate / Spleen pathogenic scores: n = 5
Protocol: The peritonitis model in vivo was generated by intraperitoneally injecting S. aureus ATCC 25923 (2.5 × 10^9 CFU/mL, 140 μL). Sixty mice were randomly divided into six groups of 10 members: those who received no infection and treatment was used as a blank control, those with […] administration of PBS (60 μL) as the negative control group, those administered with benzylpenicillin potassium (60 μL, 1 μg/μL) as the positive control group, and the remaining three groups corresponded to three antimicrobial peptide groups of Myr-36PW (60 μL, 1 μg/μL), PMAP-36PW (60 μL, 1 μg/μL), and PMAP-36 (60 μL, 1 μg/μL). After 4 h post-inoculation, treatment was initiated by intraperitoneal injection once a day for 3 days. The mice were sacrificed 24 h the treatment. Changes in the appearance of anatomical tissues were observed. The liver and spleen tissues were removed aseptically from the mice, and half of these samples were gently fixed in buffered formaldehyde solution for histopathological assessment by hematoxylin and eosin (H&E) staining. Pathological changes were scored to assess individual therapeutic status as described previously (Song et al., [2015]; Lei et al., [2018]). The remaining half of livers and spleens were added with 1 mL of PBS, homogenized, and serially diluted. Bacterial CFU counts were measured.
Figure 9 Therapeutic potency of peritonitis by Myr-36PW in vivo. The livers and spleens (n = 5) in each group were collected on day 4 after the intraperitoneal injection of S. aureus ATCC 25923. (A) Morphological changes in liver and spleen tissues. (B) Representative histopathological images of processed liver and spleen sections with hematoxylin and eosin (H&E) staining. Images are presented at a magnification of 40×. a: central venous hemorrhage. b: the cells fuse into pieces, and the nucleus dissolves and disappears. c: cytoplasmic cavitation. (C,D) Pathological scores of the liver and spleen sections. Scoring standard: 1 indicated no pathology, 2 indicated perivascular infiltrates, 3 indicated perivascular or interstitial infiltrates affecting <20% of the section, 4 indicated perivascular or interstitial infiltrates affecting 20–50% of the section, and 5 indicated perivascular or interstitial infiltrates affecting >50% of the section. (E,F) Bacterial CFU in liver and spleen homogenate. BP is benzylpenicillin potassium. Data represent the mean ± SD of five individual experiments.

| Structure (SMILES) | MICs of different classes of antibiotics (S. typhimurium SL 1344; S. typhimurium SL 1344, * indicates resistant (CLSI, 2020)) [µg/mL] | Lung histopathology (H&E) (S. aureus ATCC 25923 [1]) | Pathological scores of the lung sections (S. aureus ATCC 25923 [1]) | Bacterial CFU in lung homogenate (S. aureus ATCC 25923 [1]) | MICs of different classes of antibiotics (S. aureus ATCC 25923 [2]; S. aureus ATCC 25923, * indicates resistant (CLSI, 2020)) [µg/mL] | Liver and spleen histopathology (H&E) (S. aureus ATCC 25923 [3]) | Liver pathogenic scores (S. aureus ATCC 25923 [3]) | Bacterial CFU in liver and spleen homogenate (S. aureus ATCC 25923 [3]) | Spleen pathogenic scores (S. aureus ATCC 25923 [3]) | MICs (S. typhimurium SL 1344; SL 1344, 18 h) [µg/mL] | MICs (S. aureus ATCC 25923 [2]; ATCC 25923, 18 h) [µg/mL] |
| --- | --- | --- | --- | --- | --- | --- | --- | --- | --- | --- | --- |
| CC1(C)S[C@@H]2[C@H](NC(=O)Cc3ccccc3)C(=O)N2[C@H]1C(=O)O [Benzylpenicillin potassium] | 16 | a complete alveolar structure, reduced blood stasis, and large reduction in inflammatory cells | lower scores than PMAP-36PW group (P < 0.05) | reduced; also recorded: lower than that for PMAP-36PW group (P < 0.05) | <0.25 | the liver cells of mice were neatly arranged with clear cell boundaries and no pathological changes in spleen tissues | significantly lower than PBS group (P < 0.01) | significantly decreased compared with that of PMAP-36PW group (P < 0.05) | displayed significant difference (P < 0.01); also recorded: lower than those for PMAP-36PW group (P < 0.05) |  |  |
| CCCCCCCCCCCCCC(=O)NCC(=O)NCC(=O)N[C@@H](CCCNC(=N)N)C(=O)N[C@@H](Cc1ccccc1)C(=O)N[C@@H](CCCNC(=N)N)C(=O)N[C@@H](CCCNC(=N)N)C(=O)N[C@@H](CC(C)C)C(=O)N[C@@H](CCCNC(=N)N)C(=O)N[C@@H](CCCCN)C(=O)N[C@@H](CCCCN)C(=O)N[C@H](C(=O)N[C@@H](CCCNC(=N)N)C(=O)N[C@@H](CCCCN)C(=O)N[C@@H](CCCNC(=N)N)C(=O)N[C@@H](CC(C)C)C(=O)N[C@@H](CCCCN)C(=O)N[C@@H](CCCCN)C(=O)N[C@H](C(=O)NCC(=O)N[C@@H](CCCCN)C(=O)N[C@H](C(=O)N[C@@H](CC(C)C)C(=O)N[C@@H](CCCCN)C(=O)N[C@@H](Cc1c[nH]c2ccccc12)C(=O)N[C@H](C(=O)N[C@@H](Cc1c[nH]c2ccccc12)C(=O)N[C@@H](Cc1c[nH]c2ccccc12)C(=O)N[C@H](C(=O)N[C@H](C(=O)NCC(=O)N[C@@H](CO)C(=O)N[C@H](C(=O)N1CCC[C@H]1C(=O)N[C@@H](CC(C)C)C(=O)NCC(=O)N[C@@H](CS)C(=O)NCC(=O)O)[C@@H](C)CC)C(C)C)[C@@H](C)CC)[C@@H](C)CC)C(C)C)[C@@H](C)CC)[C@@H](C)O [Myr-36PW] (Myristoyl-GGRFRRLRKKTRKRLKKIGKVLKWIWWIVGSIPLGCG-OH; C-terminus assumed) |  | a complete alveolar structure, reduced blood stasis, and large reduction in inflammatory cells | lower scores than PMAP-36PW group (P < 0.05) | reduced; also recorded: lower than that for PMAP-36PW group (P < 0.05) |  | the liver cells of mice were neatly arranged with clear cell boundaries and no pathological changes in spleen tissues | significantly lower than PBS group (P < 0.01) | significantly decreased compared with that of PMAP-36PW group (P < 0.05) | displayed significant difference (P < 0.01); also recorded: lower than those for PMAP-36PW group (P < 0.05) | 8 | 0.0020 |
